From patent US6875775B2, “Triphenylalkene derivatives and their use as selective estrogen receptor modulators” (Hormos Medical Oy LTD, priority 1999, dated 2005) come the findings set out here.

Read-outs that look alike come from different tables or passages of the source.

The test system of assay [1] is MCF-7 cells. As to the kind of experiment: cells. Type of assay: cell-based. As to conditions: for Killing of MCF-7 cells at the highest investigated concentration (in words): 10 μM, compounds with weak hormonal activity; for cytotoxicity at 10 µM: 10 μmol/l, read-out: Maximal Cell Kill (% fraction of dead cells). The protocol:
Evaluation of Estrogenic and Antiestrogenic Properties of Compounds in MCF-7 Cell Growth Experiments in Vitro
For experiments involving hormone or anti-hormone treatment, the cells in exponential growth phase were precultivated in the absence of estradiol for one day. […] After the incubation period the medium was removed. The exposure to study drugs was started immediately by adding fresh medium with 5% stripped serum. Half of the cells were grown with estradiol, half without estradiol. Study compounds (dissolved in ethanol in 0.01 M concentration and diluted with the growth medium as appropriate) were added. The final concentrations of the compounds were 1, 10, and 100 nM, and 1 and 10 μM. The cells were incubated for four days.
This method allows evaluation of estrogenicity based on the ability of the compounds to stimulate the growth of the estrogen-dependent cells in the absence of estradiol.
Estrogenicity was estimated by comparing the maximal growth stimulus (at any concentration) of study compound as percent from growth stimulus by estradiol (100% stimulus). […] At high concentrations molecules may also show toxicity. Toxicity was estimated as the fraction of dead cells (i.e. 100% means that all cells have died during the exposure).

The test system of assay [2] is immature rat uterus. The experiment in a line: 3 day uterotropic assay in immature female rats. As to conditions: Table 3. The protocol: Estimation of Estrogenicity and Antiestrogenicity in Vivo
The results have been shown in Table 3 both as per cent of estrogen stimulation (100%), and as inhibition of estrogen action (full inhibition is 100%). The values are given at two dose levels, low i.e. 3-5 mg/kg and high i.e. 10-50 mg/kg. Estrogenic activity can be estimated also after a 4 weeks' treatment of ovariectomized rats based on the uterine size.

In assay [3] the test system is ovariectomized rats. As to the kind of experiment: Size of the uterus after 4 weeks treatment of ovariectomized rats. Type of assay: in vivo, rat.
For assay [4], the system named is ovariectomized (OVX) rats. As to the kind of experiment: Serum cholesterol level in ovariectomized (OVX) rats after 4 weeks dosing. Type of assay: in vivo, rat. As to conditions: for Cholesterol level (mmol/l) in serum: OVX rat, 4 weeks dosing. An excerpt:
Estimation of Effects to Cholesterol and Bone
Compounds were given p.o. to female rats for 4 or 5 weeks daily. At the end a blood sample was taken. Serum was separated by centrifugation and frozen until analyzed for total amount of cholesterol. Bone samples were taken from vertebra and tibia. Physical strength of the bones was studied as described by Peng et al, 1994.

Assay [5] concerns ovariectomized rats. The experiment in a line: Ash weight of tibial epiphyses in ovariectomized rats after 4 weeks dosing. It is filed as in vivo, rat. As to conditions: OVX rats. An excerpt: (§1) Compounds were given p.o. to female rats for 4 or 5 weeks daily. At the end a blood sample was taken. Serum was separated by centrifugation and frozen until analyzed for total amount of cholesterol. Bone samples were taken from vertebra and tibia. Physical strength of the bones was studied as described by Peng et al, 1994. The assessments of the bone included:
Ash Weight of Tibial Epiphyses
Epiphyses of one tibia was carefully prepared and burned. Samples were burned to remove water and organic material. Ash weight relates to the mineral content of the bone. In addition, bone samples were taken to study the histomorphometry. In some cases the bone formation was studied by injecting tetracycline (50 mg/kg i.p. 10 days before autopsy) and calcein (20 mg/kg i.p. 3 days before autopsy). The method is based on permanent binding of tetracycline into growing bone and its detection by fluorescence (Peng et al, 1994).

In assay [6] the test system is ovariectomized rats. As to the kind of experiment: Maximal load of femoral neck (cantilever bending test) in ovariectomized rats after 4 weeks dosing. It is filed as in vivo, rat. As to conditions: OVX rats. The protocol: as §1
Mechanical Testing of Bones
The mechanical testing of bones was carried out by materials testing machine, constructed in-house at Oulu University (Technical Services Dcpartment of the Medical Faculty). The testing machine is based on lever arm principle. One end of a steel lever is fixed. The pressing rod and the driving motor are connected to the lever arm with a moment ratio of 12.5 cm/50 cm=¼. As a driving motor a linear actuator (SEY 10 Magnetic Elektromotoren AG, Switzerland) is used to obtain constant vertical movement (0.62 cm/s). The interchangeable compression head is mounted on the pressing rod for different tests transmitting compressive force to the specimen, and moving at a constant speed of 0.155 mm/s up to a maximal load capacity of 1200 N. The pressing rod is guided via an axial ball bearing to keep the movement vertical. Compressive force is measured by a temperature-compensated force sensor, which is attached to the stationary part of the compression stage. The measuring electronics include sensor calibration and adjustments.
The maximal load on the femoral neck was measured by the cantilever bending test. The supporter for the bone was a thick polymethyl methacrylate plate in which several holes of different sizes were drilled. On one side of each hole a groove was engraved for the […] trochanter of the femur. The femur was cut exactly between the middle and lower third of the shaft. The bone was inserted perpendicularly and tightly into a suitable hole on the supporter. The lesser trochanter of each bone touched the surface of the plate. This procedure allowed rapid and stable fixation of the bone without using any additional embedding materials. […]

For assay [7], the system named is DMBA-induced rat mammary gland cancer. The experiment in a line: Antitumor activity in DMBA-induced rat mammary gland cancer model. Type of assay: in vivo. The protocol: Estimation of Antitumor Activity in Vivo
Antitumor activity was estimated by using DMBA (dimethylbenz[a] anthracene) model. One single peroral dose of DMBA (12 mg) initiates mammary gland carcinogenesis. New compounds were administered for 5 weeks when palpable tumors appeared. Size of the tumors and number of new tumors were carefully estimated once a week until termination. The model has been described in detail by Kangas et al, 1986. The growth of the tumors was measured once a week. All tumors were classified according to their growth properties to progressing, stable and regressing ones. Disappeared tumors were separately calculated. The tumors were considered to be progressing, if the tumor volume grew more than 8-fold during the 5 weeks dosing period, and regressing if the tumor volume decreased to one fourth or less from the volume in the beginning. If tumor volume changed less or remained unchanged, the tumors were considered to be stable.

Assay [8] relates to intact and castrated male rats. The experiment in a line: Weight of the prostate gland in intact and castrated male rats after 4 weeks daily treatment. As to conditions: for Weight of the prostate gland (g) mean and sd: 4 weeks daily. Type of assay: in vivo, rat.
Assay [9] can be described thus: Overall hormonal profile summarised from Tables 2, 3 and 4.
Where [10] appears, read: 15 mg/kg p.o. daily for 5 weeks.

Regarding `CN(C)CCOc1ccc(/C(=C(/CCCl)c2ccccc2)c2ccc(F)cc2)cc1` [No. 1, (E)-(2-{4-[4-Chloro-1-(4-fluorophenyl)-2-phenylbut-1-enyl]phenoxy}ethyl)-dimethylamine], in assay [1], the “Killing of MCF-7 cells at the highest investigated concentration (in words)” value is “kill MCF-7 cells (human breast cancer cells) effectively”. Besides, the “Estrogenic action in vitro (in words)” value in assay [1] (in vitro, Table 2) is reported as “no estrogenic action in vitro”. In addition, the “Estrogenic action in vivo / in the uterus (in words)” value in assay [2] is given as “weak estrogen in vivo”.
For `OCCOCCOc1ccc(/C(=C(/CCCl)c2ccccc2)c2ccccc2)cc1` [No. 19, (Z)-2-{2-[4-(4-Chloro-1,2-diphenylbut-1-enyl)phenoxy]ethoxy}ethanol], the “Killing of MCF-7 cells at the highest investigated concentration (in words)” value in assay [1] is recorded as “kill MCF-7 cells (human breast cancer cells) effectively”. The cytotoxicity at 10 µM in assay [1] (Homo sapiens, MCF7, 96 h, With estradiol (E2)) turned out to be 50%; in assay [1] (Homo sapiens, MCF7, 96 h, Without estradiol (E2)) it was 14%. In assay [1] (Homo sapiens, MCF7, 96 h, With estradiol (E2), 1 μM, read-out: Antagonism at 1 μM (% of full antagonism)), the inhibition at 1 µM is 21%. Besides, the Emax in assay [1] (Homo sapiens, MCF7, 96 h, Without estradiol (E2), maximal growth stimulus at any concentration, 4 days, read-out: Maximal Agonism (% of E2)) was determined as 14%. Besides, the “Uterine size” value in [3] (1.0 mg/kg peroral daily) amounted to 0.192 ± 0.029 g; in assay [3] (5.0 mg/kg peroral daily) it was 0.221 ± 0.023 g. Also, the “Cholesterol level (mmol/l) in serum” value stood at 3.6 ± 0.4 mmol/L in assay [4] (0.3 mg/kg) and 3.9 ± 0.6 mmol/L in [4] (10 mg/kg). The “Effect on cholesterol (in words)” value in assay [4] (OVX rats, Table 4) is listed as “decrease cholesterol”. Further, the results for the “Ash weight (mg) of tibial epiphyses” value in assay [5] (1.0 mg/kg p.o.) and in assay [5] (5.0 mg/kg p.o.) were 34.8 ± 1.3 mg and 34.9 ± 1.9 mg, respectively. For the same compound, the “Maximal load (N) of femoral neck” value in assay [6] (1.0 mg/kg p.o.) was 81.6 ± 7.9 N; in assay [6] (5.0 mg/kg p.o.), 85.7 ± 17.0 N. For the same compound, the results for the “Disappeared tumors (per cent of total tumor number)” value in assay [7] (3 mg/kg p.o. daily for 5 weeks) and in assay [7] (setting [10]) were 20% and 14%, respectively. For the same compound, the “Growing tumors (per cent of total tumor number)” value is 20% in assay [7] (3 mg/kg p.o. daily for 5 weeks) and 14% in assay [7] (setting [10]). Further, the “Regressing tumors (per cent of total tumor number)” value in assay [7] (3 mg/kg p.o. daily for 5 weeks) came out at 40%; in [7] (setting [10]) it was 57%. The “Stable tumors (per cent of total tumor number)” value in assay [7] (3 mg/kg p.o. daily for 5 weeks) turned out to be 20%; in assay [7] (setting [10]), 14%. The “Anticancer efficacy in vivo compared with tamoxifen and toremifene (in words)” value in assay [7] (DMBA-induced rat mammary tumor model, even at very low doses) is listed as “more effective anticancer drug in vivo”. Moreover, the Weight of the prostate gland (g) mean and sd in assay [8] (0.5 mg/kg to castrated rats) stood at 0.59 ± 0.07 g; in assay [8] (0.5 mg/kg, intact male rats) it was 2.66 ± 0.21 g; in [8] (5.0 mg/kg to castrated rats), 0.62 ± 0.07 g; in [8] (5.0 mg/kg, intact male rats), 1.58 ± 0.5 g. For the same compound, the “Estrogenic action on the weight of the prostate gland (in words)” value in assay [8] (at doses which are active in DMBA-induced mammary tumor model) is on record as “does not show any estrogenic action”. Besides, the “Estrogenic and antiestrogenic action (in words)” value in [9] is “weak estrogenic and no antiestrogenic action”.
